According to paper PMC12304826, “Redirecting the Peptide Cleavage Causes Protease Inactivation” (Angewandte Chemie (International Ed. in English), 2025):
Where two headings read alike, the source gives them in different places.

How the values were obtained:
human cathepsin B = biological target: T1, human cathepsin B (Homo sapiens, UniProt P07858); test: Cathepsin B inhibition assay (chromogenic substrate Cbz-Arg-Arg-pNA); assay type: biochemical; settings: for kinact/KI: 1 h; for remaining activity at 20 µM: 20 µM inhibitor, duplicate measurements, product formation after 60 min, read-out: r.a. (%), residual enzymatic activity of cathepsin B; for kinac: calculated from kinac/Ki values and separately obtained Ki values
T1 construct: purchased Calbiochem, Darmstadt, Germany
Description: To get a first insight into the interaction with human cathepsin B, the inhibition of the enzyme‐catalyzed cleavage of a chromogenic peptide substrate was examined. […] Active compounds were subjected to kinetic measurements at five different concentrations (Tables 1 and S1).
Figure 1 Cathepsin B‐catalyzed hydrolysis of 500 µM (= 0.45 K m) of Cbz‐Arg‐Arg‐p‐nitroanilide in the absence (black) or presence of increasing concentrations of carbamate 4 (from top to bottom: 0.4, 0.8, 1.2, 1.6, and 2.0 µM).
1. Enzyme Inhibition Assays and Kinetic Data of Inhibition of Cathepsins B, L, K and S General. Human cathepsins were assayed either fluorimetrically or spectrophotometrically as noted below. The 10 mM inhibitor solutions were prepared in DMSO. The final concentration of DMSO in all assays was 2%. Non-linear regressions were conducted with GraFit 5. Residual cathepsin activity at an inhibitor concentration of 20 µM was determined from duplicate measurements based on the product formation after 60 min. Concentration dependent measurements were performed in duplicate measurements with five different inhibitor concentrations when the residual cathepsin activity in the presence of 20 µM inhibitor was below 70% (cathepsin B) or below 50% (cathepsins cathepsins L, K, and S). Progress curves were monitored for 60 min. First-order rate constants, kobs, were determined by non-linear regression following the equation [P] = vi × (1 – exp(-kobs × t))/kobs + d, where [P] is the product concentration, vi is the initial product formation rate, kobs is the observed first-order rate constant, and d is the offset. Mean values of kobs were plotted versus corresponding inhibitor concentrations [I], and second-order rate constants of inactivation, kinac/Ki, were obtained by linear regression. The equation kobs/[I] = (kinac/Ki)/(1 + [S]/Km) was used, where [S] is the substrate concentration and Km is the Michaelis-Menten constant. Standard errors (SE) refer to the linear regression.
Cathepsin B inhibition assay.[1] Human isolated cathepsin B (Calbiochem, Darmstadt, Germany) was assayed spectrophotometrically on a Cary 50 or 100 Bio, Varian, at 405 nm. The reactions were followed at 37 °C. Assay buffer was 100 mM sodium phosphate buffer pH 6.0, 100 mM NaCl, 5 mM EDTA, 0.01% Brij 35. A stock solution of human cathepsin B of 1.81 mg/mL or 0.47 mg/mL in 20 mM sodium acetate buffer pH 5.0, 1 mM ethylenediaminetetraactic acid (EDTA) was diluted 1:500 with assay buffer containing 5 mM dithiothreitol (DTT) and incubated for 30 min at 37 °C. A 100 mM stock solution of the para-nitroaniline (pNA)-based chromogenic substrate Cbz-Arg-Arg-pNA was prepared in DMSO.
The final concentration of the substrate was 500 μM (= 0.45 Km). Into a cuvette containing 960 μL assay buffer, inhibitor solution and DMSO in a total volume of 15 μL, and 5 μL of the substrate solution were added and mixed. The reaction was initiated by adding 20 μL of the enzyme solution. […]

human cathepsin S = biological target: T2, human cathepsin S (Homo sapiens, UniProt P25774); test: Cathepsin S inhibition assay (Cbz-Phe-Arg-AMC); assay type: biochemical
T2 construct: purchased Enzo Life Sciences, Lörrach, Germany
T2 sequence (P25774 115-331): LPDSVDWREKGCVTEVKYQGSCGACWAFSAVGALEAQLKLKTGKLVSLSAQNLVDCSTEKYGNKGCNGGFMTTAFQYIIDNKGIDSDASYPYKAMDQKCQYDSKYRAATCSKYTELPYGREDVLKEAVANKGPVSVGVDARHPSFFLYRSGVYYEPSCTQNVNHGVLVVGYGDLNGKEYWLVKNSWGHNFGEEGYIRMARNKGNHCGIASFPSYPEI
Description: 1. Enzyme Inhibition Assays and Kinetic Data of Inhibition of Cathepsins B, L, K and S General. Human cathepsins were assayed either fluorimetrically or spectrophotometrically as noted below. The 10 mM inhibitor solutions were prepared in DMSO. The final concentration of DMSO in all assays was 2%. Non-linear regressions were conducted with GraFit 5. Residual cathepsin activity at an inhibitor concentration of 20 µM was determined from duplicate measurements based on the product formation after 60 min. Concentration dependent measurements were performed in duplicate measurements with five different inhibitor concentrations when the residual cathepsin activity in the presence of 20 µM inhibitor was below 70% (cathepsin B) or below 50% (cathepsins cathepsins L, K, and S). Progress curves were monitored for 60 min. First-order rate constants, kobs, were determined by non-linear regression following the equation [P] = vi × (1 – exp(-kobs × t))/kobs + d, where [P] is the product concentration, vi is the initial product formation rate, kobs is the observed first-order rate constant, and d is the offset. Mean values of kobs were plotted versus corresponding inhibitor concentrations [I], and second-order rate constants of inactivation, kinac/Ki, were obtained by linear regression. The equation kobs/[I] = (kinac/Ki)/(1 + [S]/Km) was used, where [S] is the substrate concentration and Km is the Michaelis-Menten constant. Standard errors (SE) refer to the linear regression. […]
methyl-coumarin (AMC)-based fluorogenic substrate Cbz-Leu-Arg-AMC was prepared in DMSO. The final concentration of the substrate was 40 μM (= 13.3 Km). When using the spectrofluorometer, into a cuvette containing 960 μL assay buffer, inhibitor solution and DMSO in a total volume of 16 μL, and 4 […]
When using the plate reader, into a well containing 192 µL assay buffer, inhibitor solution and DMSO in a total volume of 3.2 µL and 0.8 µL of the substrate solution were added and mixed. The reaction was initiated by adding 4 µL of the cathepsin K solution.
Cathepsin S inhibition assay.[2] Human recombinant cathepsin S (Enzo Life Sciences, Lörrach, […]
nm and for emission 440 nm. The reactions were followed at 25 °C. Assay buffer was 100 mM sodium phosphate buffer pH 6.0, 100 mM NaCl, 5 mM EDTA, and 0.01% Brij 35. A stock solution of human cathepsin S of 70 μg/mL in 100 mM MES buffer, pH 6.5, 1 mM EDTA, 50 mM L-cysteine, 10 mM DTT, 0.5% Triton X-100 and 30% glycerol was diluted 1:100 with a 50 mM sodium phosphate buffer pH 6.5, 50 mM NaCl, 2 mM EDTA, 0.01% Triton X-100 and 5 mM DTT and incubated for 60 min at 37 °C. A 10 mM stock solution of the fluorogenic substrate Cbz-Phe-Arg-AMC was prepared in DMSO.
The assay was performed with a final substrate concentration of 40 µM (= 0.74 Km). When using the spectrofluorometer, into a cuvette containing 920 μL assay buffer, inhibitor solution and DMSO in a total volume of 16 μL, and 4 μL of the substrate solution were added and mixed. The reaction was initiated by adding 60 μL of the cathepsin S solution. When using the plate reader, into a well containing 188 µL assay buffer, inhibitor solution and DMSO in a total volume of 3.2 µL and 0.8 µL of the substrate solution were added and mixed. The reaction was initiated by adding […] of the cathepsin S solution.

[1] = 20 µM inhibitor, 60 min, read-out: Residual activity @ 20 µM (%) Cat S
[2] = pH 6, five inhibitor concentrations, duplicates, 60 min progress curves, 500 µM Cbz-Arg-Arg-pNA, pH 6.0, 37 °C, read-out: k inac/K i ± SE, second-order rate constant of enzyme inactivation, cathepsin B
[3] = inhibitor not soluble at 20 µM, calculated for 20 µM from IC50 at two lower concentrations, read-out: Residual activity @ 20 µM (%) Cat S, approximated [e]

SMILES | remaining activity at 20 µM (human cathepsin S; [1]) | remaining activity at 20 µM (human cathepsin B) | kinact/KI (human cathepsin B; [2]) | further results
CC(C)C[C@H](NC(=O)Oc1ccc(NC(=O)N(Cc2ccccc2)Cc2ccccc2)c(Br)c1)C(=O)N1CCC[C@H]1C(=O)O [Compound 26] | 59% | – | – | kinact/KI (human cathepsin B; pH 6, read-out: k inac/K i ± SE, second-order rate constant of enzyme inactivation, cathepsin B): 2660 ± 80 M⁻¹ s⁻¹
CC(C)CC(OC(=O)Nc1ccc(Cl)cc1)C(=O)N[C@@H](Cc1ccccc1)C(=O)O (stereo partly shown) [Compound 16] | 56% | 91% | – | –
CC(C)C[C@H](NC(=O)Oc1ccc(Cl)cc1)C(=O)N[C@@H](Cc1ccccc1)C(=O)O [Compound 4] | 83% | ≤ 2% | 745 ± 5 M⁻¹ s⁻¹ | –
CC(C)C[C@@H](C(=O)N1CCC[C@H]1C(=O)O)N(C)C(=O)Oc1ccc(Cl)cc1 [Compound 15] | ≥ 98% | – | – | –
CC(C)C[C@H](NC(=O)Nc1ccc(Cl)cc1)C(=O)N[C@@H](Cc1ccccc1)C(=O)O [Compound 18] | 78% | 90% | – | –
O=C(NC(CC1CCCCC1)C(=O)NC(Cc1ccccc1)C(=O)O)Oc1ccc(NC(=O)C(Cc2ccccc2)Cc2ccccc2)c(Cl)c1 (stereo not shown) [Compound 31] | – | ≤ 2% | 23600 ± 1900 M⁻¹ s⁻¹ | fold lower K i value in comparison with 7 (human cathepsin B; 31 versus 7): more than 20 fold; kinac (human cathepsin B): 0.0104 s⁻¹; Ki (human cathepsin B; non-covalent enzyme-inhibitor complex, read-out: K i value): 0.441 µM; remaining activity at 20 µM (human cathepsin S; [3]): 46%
CC(C)CC(CNC(=O)Oc1ccc(Cl)cc1)C(=O)N[C@H](Cc1ccccc1)C(=O)O (stereo partly shown) [Compound 5] | – | 11% | 108 ± 5 M⁻¹ s⁻¹ | kinac/Ki ± SE Cat S (human cathepsin S; five inhibitor concentrations, 60 min progress curves): 10.2 M⁻¹ s⁻¹
CC(C)C[C@H](NC(=O)Nc1ccc(Cl)cc1)C(=O)N1CCC[C@H]1C(=O)O [Compound 19] | ≥ 98% | 95% | – | –
CC(C)C[C@H](NC(=O)Oc1ccc(Cl)c(NC(=O)Cc2ccccc2)c1)C(=O)N1CCC[C@H]1C(=O)O [Compound 20] | 93% | ≤ 2% | 2860 ± 50 M⁻¹ s⁻¹ | –
CC(C)C[C@H](NC(=O)Oc1ccc(Cl)cc1)C(=O)N1CCC[C@H]1C(=O)O [Compound 8] | ≥ 98% | 4% | 711 ± 40 M⁻¹ s⁻¹ | –
CC(C)CC(CNC(=O)Oc1ccc(Cl)cc1)C(=O)N1CCC[C@@H]1C(=O)O (stereo partly shown) [Compound 9] | 92% | 53% | 30.3 ± 4.1 M⁻¹ s⁻¹ | –
CC(C)CC(OC(=O)Nc1ccc(Cl)cc1)C(=O)N1CCC[C@H]1C(=O)O (stereo partly shown) [Compound 17] | 93% | 68% | – | kinact/KI (human cathepsin B; five inhibitor concentrations, duplicates, 60 min progress curves, 500 µM Cbz-Arg-Arg-pNA, pH 6.0, 37 °C, read-out: k inac/K i ± SE, second-order rate constant of enzyme inactivation, cathepsin B): 10.6 ± 1.6 M⁻¹ s⁻¹
CC(C)CC(NC(=O)Oc1ccc(NC(=O)C(c2ccccc2)c2ccccc2)c(Cl)c1)C(=O)N1CCCC1C(=O)O (stereo not shown) [Compound 28] | 58% | ≤ 2% | 8180 ± 290 M⁻¹ s⁻¹ | –
CC(C)CC(NC(=O)Oc1ccc(Cl)c(NC(=O)C(c2ccccc2)c2ccccc2)c1)C(=O)N1CCCC1C(=O)O (stereo not shown) [Compound 22] | 87% | ≤ 2% | 3830 ± 70 M⁻¹ s⁻¹ | –
CC(C)CC(NC(=O)Oc1ccc(NC(=O)c2ccc(-c3ccccc3)cc2)c(Cl)c1)C(=O)N1CCCC1C(=O)O (stereo not shown) [Compound 25] | – | ≤ 2% | 3640 ± 60 M⁻¹ s⁻¹ | remaining activity at 20 µM (human cathepsin S; [3]): 53%
CC(C)CC(NC(=O)Oc1ccccc1)C(=O)NC(Cc1ccccc1)C(=O)O (stereo not shown) [Compound 1] | 97% | 23% | 157 ± 13 M⁻¹ s⁻¹ | –
CC(C)C[C@H](NC(=O)Oc1ccc(-c2ccccc2)c(NC(=O)Cc2ccccc2)c1)C(=O)N1CCC[C@H]1C(=O)O [Compound 21] | 89% | ≤ 2% | 1340 ± 20 M⁻¹ s⁻¹ | –
CC(C)C[C@H](NC(=O)Oc1ccc(Cl)cc1)C(=O)N[C@@H](Cc1ccccc1)C(=O)OC(C)(C)C [Compound 2] | ≥ 98% | 92% | – | –
O=C(NC(CC1CCCCC1)C(=O)NC(Cc1ccccc1)C(=O)O)Oc1ccc(NC(=O)C(c2ccccc2)c2ccccc2)c(Cl)c1 (stereo not shown) [Compound 30] | – | ≤ 2% | > 10000 M⁻¹ s⁻¹ | k inac/K i ± SE, second-order rate constant of enzyme inactivation, cathepsin B (human cathepsin B; five inhibitor concentrations, duplicates, 60 min progress curves, 500 µM Cbz-Arg-Arg-pNA, pH 6.0, 37 °C): 13,800 M^−1s^−1; remaining activity at 20 µM (human cathepsin S; [3]): 42%
CC(C)C[C@H](NC(=O)Oc1ccc(Cl)cc1)C(=O)N1CCCC[C@H]1C(=O)O [Compound 10] | ≥ 98% | 5% | 933 ± 40 M⁻¹ s⁻¹ | –
COC(=O)C(Cc1ccccc1)NC(=O)C(CC(C)C)NC(=O)Oc1ccc(Cl)cc1 (stereo not shown) [Compound 3] | 79% | 97% | – | –
CC(C)C[C@H](NC(=O)Oc1ccc(NC(=O)Cc2ccccc2)c(Cl)c1)C(=O)N1CCC[C@H]1C(=O)O [Compound 24] | 90% | ≤ 2% | 6530 ± 310 M⁻¹ s⁻¹ | –
O=C(NC(CC1CCCCC1)C(=O)NC(Cc1ccccc1)C(=O)O)Oc1ccc(Cl)cc1 (stereo not shown) [Compound 7] | 72% | ≤ 2% | 2010 ± 110 M⁻¹ s⁻¹ | kinac (human cathepsin B): 0.0200 s⁻¹; Ki (human cathepsin B; non-linear regression of initial rates vi versus inhibitor concentration, read-out: Ki ± SE): 9.96 µM
